According to PubChem BioAssay AID1919005 (Molecular Pharmacology Branch, DTP, NCI, 2023):
“And” between values parts separate entries of the source, which are not always exact repeats. Equal entries are not always repeated. Each block holds one compound with its values, some of them ahead of it.

Test system: 855422-203-R-J1-PDC complex spheroid growth
Assay: Anticancer human tumor 855422-203-R-J1-PDC patient-derived bladder carcinoma cell line growth inhibition [AhR]
Conditions: for viability, T/C: stronger effect = lower value
How it was run: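 Spheroids combined tumor cells with HUVEC endothelial cells and human MSCs as stroma. AhR antagonists were paired with standard or investigational drugs, each dosed in half-log steps down from near clinical Cmax, or from 10 microM where Cmax was unknown.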

[1] = curve of first compound, second compound 0.1 µM
[2] = curve of first compound, second compound 0.316 µM
[3] = curve of first compound, second compound 1 µM
[4] = curve of first compound, second compound 3.16 µM
[5] = curve of first compound, second compound 10 µM
[6] = second compound 0.1 µM, first compound 0.0316 µM
[7] = second compound 0.1 µM, first compound 0.1 µM
[8] = second compound 0.1 µM, first compound 0.316 µM
[9] = second compound 0.1 µM, first compound 1 µM
[10] = second compound 0.1 µM, first compound 3.16 µM
[11] = second compound 0.1 µM, first compound 10 µM
[12] = second compound 0.316 µM, first compound 0.0316 µM
[13] = second compound 0.316 µM, first compound 0.1 µM
[14] = second compound 0.316 µM, first compound 0.316 µM
[15] = second compound 0.316 µM, first compound 1 µM
[16] = second compound 0.316 µM, first compound 3.16 µM
[17] = second compound 0.316 µM, first compound 10 µM
[18] = second compound 1 µM, first compound 0.0316 µM
[19] = second compound 1 µM, first compound 0.1 µM
[20] = second compound 1 µM, first compound 0.316 µM
[21] = second compound 1 µM, first compound 1 µM
[22] = second compound 1 µM, first compound 3.16 µM
[23] = second compound 1 µM, first compound 10 µM
[24] = second compound 3.16 µM, first compound 0.0316 µM
[25] = second compound 3.16 µM, first compound 0.1 µM
[26] = second compound 3.16 µM, first compound 0.316 µM
[27] = second compound 3.16 µM, first compound 1 µM
[28] = second compound 3.16 µM, first compound 3.16 µM
[29] = second compound 3.16 µM, first compound 10 µM
[30] = second compound 10 µM, first compound 0.0316 µM
[31] = second compound 10 µM, first compound 0.1 µM
[32] = second compound 10 µM, first compound 0.316 µM
[33] = second compound 10 µM, first compound 1 µM
[34] = second compound 10 µM, first compound 3.16 µM
[35] = second compound 10 µM, first compound 10 µM
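Note: spheroids exposed to agents for seven days before readout.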
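Throughout, for viability, T/C: percent of DMSO vehicle control luminescence viability.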

SMILES: Nc1ncn(C2CC(O)C(CO)S2)c(=O)n1 (stereo unspecified)
viability, T/C (compound 0.000949 µM): 108% and 96.3% and 97.9% | viability, T/C (compound 0.003 µM): 93.2% and 97.4% and 100% | viability, T/C (compound 0.00949 µM): 95.8% and 97.7% and 113% | viability, T/C (compound 0.03 µM): 82.9% and 103% and 95.7% | viability, T/C (compound 0.0949 µM): 86.4% and 98.1% and 91.1% | viability, T/C (compound 0.3 µM): 81.6% and 99.8% and 82.1% | IC50 (curve of compound): > 300 nM

SMILES: COc1cc(Nc2ncc3c(n2)-c2ccc(Cl)cc2C(c2c(F)cccc2OC)=NC3)ccc1C(=O)O + CC(CO)NC(=O)c1cc(-c2ccc(Cl)cc2)nn(-c2cnn(C)c2)c1=O
IC50 [1]: > 10000 nM | IC50 [2]: 10000 nM | IC50 [3]: > 10000 nM | IC50 [4]: > 10000 nM | IC50 [5]: > 10000 nM | viability, T/C [6]: 97% | viability, T/C [7]: 93.6% | viability, T/C [8]: 66% | viability, T/C [9]: 57.6% | viability, T/C [10]: 52.2% | viability, T/C [11]: 46.1% | viability, T/C [12]: 87.1% | viability, T/C [13]: 107% | viability, T/C [14]: 66.2% | viability, T/C [15]: 55.2% | viability, T/C [16]: 48% | viability, T/C [17]: 48.1% | viability, T/C [18]: 93.5% | viability, T/C [19]: 104% | viability, T/C [20]: 66.2% | viability, T/C [21]: 61% | viability, T/C [22]: 48.1% | viability, T/C [23]: 45.9% | viability, T/C [24]: 88.9% | viability, T/C [25]: 90.6% | viability, T/C [26]: 60.2% | viability, T/C [27]: 58.5% | viability, T/C [28]: 46.4% | viability, T/C [29]: 47.2% | viability, T/C [30]: 94.7% | viability, T/C [31]: 79.9% | viability, T/C [32]: 60.8% | viability, T/C [33]: 50.6% | viability, T/C [34]: 55.5% | viability, T/C [35]: 46.3%

SMILES: O=C(C=Cc1cccc(S(=O)(=O)Nc2ccccc2)c1)NO + CC(CO)NC(=O)c1cc(-c2ccc(Cl)cc2)nn(-c2cnn(C)c2)c1=O
IC50 [1]: 2150 nM | IC50 [2]: 1970 nM | IC50 [3]: 2030 nM | IC50 [4]: 1540 nM | IC50 [5]: 1730 nM | viability, T/C [6]: 87.4% | viability, T/C [7]: 88.6% | viability, T/C [8]: 91.1% | viability, T/C [9]: 71.7% | viability, T/C [10]: 38.5% | viability, T/C [11]: 1.42% | viability, T/C [12]: 89.1% | viability, T/C [13]: 88.2% | viability, T/C [14]: 92.7% | viability, T/C [15]: 70.6% | viability, T/C [16]: 34.7% | viability, T/C [17]: 0.82% | viability, T/C [18]: 93.7% | viability, T/C [19]: 87.8% | viability, T/C [20]: 86.6% | viability, T/C [21]: 79.8% | viability, T/C [22]: 31.7% | viability, T/C [23]: 0.88% | viability, T/C [24]: 83.2% | viability, T/C [25]: 86.8% | viability, T/C [26]: 90.7% | viability, T/C [27]: 60.3% | viability, T/C [28]: 27.9% | viability, T/C [29]: 0.71% | viability, T/C [30]: 87.2% | viability, T/C [31]: 90.3% | viability, T/C [32]: 79.4% | viability, T/C [33]: 67.3% | viability, T/C [34]: 31.8% | viability, T/C [35]: 0.94%

Second part, led by results:

IC50 (curve of compound): > 1000 nM
SMILES: Nc1ncn(C2CC(O)C(CO)O2)c(=O)n1 (stereo unspecified)
viability, T/C (compound 0.00316 µM): 94.3% and 107% and 95.8% | viability, T/C (compound 0.01 µM): 96.5% and 98.7% and 94.9% | viability, T/C (compound 0.0316 µM): 91.6% and 97.8% and 87.2% | viability, T/C (compound 0.1 µM): 87.2% and 88.3% and 87.7% | viability, T/C (compound 0.316 µM): 86.9% and 90.8% and 79.8% | viability, T/C (compound 1 µM): 83.3% and 83.5% and 78.8%

IC50 (curve of compound): 267 nM and 917 nM and 327 nM
SMILES: O=C(C=Cn1cnc(-c2cc(C(F)(F)F)cc(C(F)(F)F)c2)n1)NNc1cnccn1
viability, T/C (compound 0.00949 µM): 110% and 118% and 112% | viability, T/C (compound 0.03 µM): 105% and 125% and 130% | viability, T/C (compound 0.0949 µM): 164% and 169% and 162% | viability, T/C (compound 0.3 µM): 41.3% and 95.5% and 51.4% | viability, T/C (compound 0.949 µM): 29.9% and 55.1% and 35% | viability, T/C (compound 3 µM): 20.7% and 42.1% and 27.6%
